# Measurements from patent publication US10793563B2, “GCN2 inhibitors and uses thereof” (Merck Patent GmbH, priority 2018, dated 2020).
# Target: GCN2 kinase (Homo sapiens (Human), UniProt Q9P2K8)
# Experiment: GCN2 Enzyme Inhibition Assay (Transcreener ADP2 fluorescence polarization)
# Assay type: biochemical
# Settings: 280 μM ATP, 200 μM (RS)7 peptide, 4 nM GCN2, 25° C.
# Procedure: Compounds were screened for their ability to inhibit GCN2 kinase activity using a Transcreener® ADP^2 fluorescence polarization assay that detects ADP levels (BellBrook Labs, WI). Assays were carried out in a buffer consisting of 25 mM Tris-HCl (pH 7.5), 50 mM NaCl, 10 mM MgCl2 and 1 mM DTT. […] Assays were carried out at 25° C. in the presence of a (typical) final concentration of 4 nM GCN2 kinase. An assay buffer containing GCN2 kinase and (RS)7 was prepared. […] The plate was incubated for 10 minutes at 25° C. prior to the addition of 4.7 μL of ATP stock buffer to initiate the enzyme reaction. The reaction was allowed to proceed for 1 hour at 25° C., prior to the addition of 10 μL detection buffer (consisting of appropriate concentrations of ADP^2 antibody and ADP Alexa633 tracer in 1× stop and detect buffer as supplied by BellBrook Labs). […] Percentage inhibition of enzyme activity was then calculated at each compound dose. IC50 and Ki(app) (using known assay and kinetic parameters) values were calculated from percentage inhibition data using a non-linear, tight-binding algorithm. All data analysis was undertaken using the Screener® software package (Genedata, Switzerland).
# Chain of GCN2 kinase (Q9P2K8 whole entry): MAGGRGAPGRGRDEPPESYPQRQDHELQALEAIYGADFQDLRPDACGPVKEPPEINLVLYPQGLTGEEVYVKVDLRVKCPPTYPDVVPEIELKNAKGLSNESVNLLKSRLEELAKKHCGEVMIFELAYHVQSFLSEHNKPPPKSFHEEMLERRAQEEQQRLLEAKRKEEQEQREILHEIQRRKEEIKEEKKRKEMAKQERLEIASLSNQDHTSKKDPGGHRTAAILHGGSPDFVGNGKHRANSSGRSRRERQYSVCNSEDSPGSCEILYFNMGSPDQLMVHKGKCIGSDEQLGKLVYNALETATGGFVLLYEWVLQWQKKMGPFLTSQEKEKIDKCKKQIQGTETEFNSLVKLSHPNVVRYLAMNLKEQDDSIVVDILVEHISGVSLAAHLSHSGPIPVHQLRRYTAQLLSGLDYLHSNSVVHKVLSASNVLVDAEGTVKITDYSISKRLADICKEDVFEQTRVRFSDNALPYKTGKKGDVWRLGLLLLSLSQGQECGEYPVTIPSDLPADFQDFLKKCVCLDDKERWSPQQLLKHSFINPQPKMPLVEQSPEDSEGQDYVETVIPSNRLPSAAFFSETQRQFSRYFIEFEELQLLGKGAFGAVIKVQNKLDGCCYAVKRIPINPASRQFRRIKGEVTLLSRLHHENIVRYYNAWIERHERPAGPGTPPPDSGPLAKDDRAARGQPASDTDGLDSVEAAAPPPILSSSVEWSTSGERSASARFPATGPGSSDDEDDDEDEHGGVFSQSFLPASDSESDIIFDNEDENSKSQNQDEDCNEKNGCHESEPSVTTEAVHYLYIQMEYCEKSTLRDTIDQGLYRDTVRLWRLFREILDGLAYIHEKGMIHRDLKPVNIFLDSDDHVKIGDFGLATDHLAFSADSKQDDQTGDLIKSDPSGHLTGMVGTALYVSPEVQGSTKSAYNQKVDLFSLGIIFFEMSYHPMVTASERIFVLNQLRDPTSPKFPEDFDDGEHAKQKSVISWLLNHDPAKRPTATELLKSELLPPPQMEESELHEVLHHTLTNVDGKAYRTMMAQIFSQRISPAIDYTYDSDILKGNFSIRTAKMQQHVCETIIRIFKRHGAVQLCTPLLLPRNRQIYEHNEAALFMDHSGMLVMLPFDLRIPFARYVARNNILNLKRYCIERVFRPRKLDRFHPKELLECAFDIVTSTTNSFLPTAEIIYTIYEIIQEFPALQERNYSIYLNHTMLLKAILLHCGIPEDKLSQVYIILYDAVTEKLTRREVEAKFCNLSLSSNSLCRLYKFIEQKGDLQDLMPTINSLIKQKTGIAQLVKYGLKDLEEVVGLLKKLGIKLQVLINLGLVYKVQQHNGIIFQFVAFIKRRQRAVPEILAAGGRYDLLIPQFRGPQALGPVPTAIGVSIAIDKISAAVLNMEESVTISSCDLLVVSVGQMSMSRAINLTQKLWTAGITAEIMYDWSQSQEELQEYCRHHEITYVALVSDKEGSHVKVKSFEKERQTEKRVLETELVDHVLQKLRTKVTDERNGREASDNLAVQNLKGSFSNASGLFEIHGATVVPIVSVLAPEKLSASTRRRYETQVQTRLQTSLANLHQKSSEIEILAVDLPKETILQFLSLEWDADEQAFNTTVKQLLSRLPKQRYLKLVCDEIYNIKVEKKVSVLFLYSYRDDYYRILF
row,SMILES,IC50 [nM]
1,"O=C(O)CC1CCCN(c2ccnc(-c3cnc4ccc(C(F)(F)F)cn34)n2)C1 (centres unmarked) [I-165, 2-(1-(2-(6-(trifluoromethyl)imidazo[1,2-a]pyridin-3-yl)pyrimidin-4-yl)piperidin-3-yl)acetic acid]",10 to 100
2,"Cc1cnc(N2CCC[C@H](C(N)=O)C2)nc1-c1cnc2ccc(Cl)cn12 [I-174, (S)-1-(4-(6-chloroimidazo[1,2-a]pyridin-3-yl)-5-methylpyrimidin-2-yl)piperidine-3-carboxamide]",10 to 100
3,"CC(=O)N1C(C)CN(c2ccnc(-c3cnc4ccc(Cl)cn34)n2)CC1c1c[nH]nc1C (centres unmarked) [I-276, 1-(4-(2-(6-chloroimidazo[1,2-a]pyridin-3-yl)pyrimidin-4-yl)-2-methyl-6-(3-methyl-1H-pyrazol-4-yl)piperazin-1-yl)ethan-1-one]",100 to 1000
4,"Cc1nnc(C)n1[C@@H]1C[C@H](C)CN(c2nccc(-c3cnc4ccc(C(F)(F)F)cn34)n2)C1 [I-463, 3-(2-((3R,5S)-3-(3,5-dimethyl-4H-1,2,4-triazol-4-yl)-5-methylpiperidin-1-yl)pyrimidin-4-yl)-6-(trifluoromethyl)imidazo[1,2-a]pyridine]",10 to 100
5,"O=C([C@H]1C[C@H]1F)N1CCN(c2ccnc(-c3cnc4ccc(C(F)(F)F)cn34)n2)CC1c1cn[nH]c1 (stereo in doubt) [I-489, (2-(1H-pyrazol-4-yl)-4-(2-(6-(trifluoromethyl)imidazo[1,2-a]pyridin-3-yl)pyrimidin-4-yl)piperazin-1-yl)((1R,2R)-2-fluorocyclopropyl)methanone]",10 to 100
6,"C[C@H]1[C@@H](CNS(C)(=O)=O)NCCN1c1ccnc(-c2cnc3ccc(C(F)(F)F)cn23)n1 [I-436, N-(((2R,3 S)-3-methyl-4-(2-(6-(trifluoromethyl)imidazo[1,2-a]pyridin-3-yl)pyrimidin-4-yl)piperazin-2-yl)methyl)methanesulfonamide]",10 to 100
7,"C[C@@H]1C[C@@H](N)CN(c2ccnc(-c3cnc4ccc(Cl)cn34)n2)C1 [I-256, (3R,5R)-1-(2-(6-chloroimidazo[1,2-a]pyridin-3-yl)pyrimidin-4-yl)-5-methylpiperidin-3-amine]",100 to 1000
8,"CC1C(C(N)=O)NCCN1c1ccnc(-c2cnc3ccc(C(F)(F)F)cn23)n1 (centres unmarked) [I-380, 3-methyl-4-{2-[6-(trifluoromethyl)imidazo[1,2-a]pyridin-3-yl]pyrimidin-4-yl}piperazine-2-carboxamide]",< 10
9,"CC1C(C(N)=O)NCCN1c1ccnc(-c2cnc3ccc(Cl)cn23)n1 (centres unmarked) [I-451, 4-(2-{6-chloroimidazo[1,2-a]pyridin-3-yl}pyrimidin-4-yl)-3-methylpiperazine-2-carboxamide]",10 to 100
10,"C[C@@H]1CN(c2ccnc(-c3cnc4ccc(C(F)(F)F)cn34)n2)C[C@H](C)N1CC(F)(F)F [I-410, 3-(4-(cis-3,5-dimethyl-4-(2,2,2-trifluoroethyl)piperazin-1-yl)pyrimidin-2-yl)-6-(trifluoromethyl)imidazo[1,2-a]pyridine]",100 to 1000
11,"O=C(C1CCOCC1)N1CCN(c2ccnc(-c3cnc4ccc(C(F)(F)F)cn34)n2)CC1c1cn[nH]c1 (centres unmarked) [I-487, (2-(1H-pyrazol-4-yl)-4-(2-(6-(trifluoromethyl)imidazo[1,2-a]pyridin-3-yl)pyrimidin-4-yl)piperazin-1-yl)(tetrahydro-2H-pyran-4-yl)methanone]",100 to 1000
12,"Cc1oncc1C(=O)N1CCN(c2ccnc(-c3cnc4ccc(C(F)(F)F)cn34)n2)CC1c1cn[nH]c1 (centres unmarked) [I-515, (2-(1H-pyrazol-4-yl)-4-(2-(6-(trifluoromethyl)imidazo[1,2-a]pyridin-3-yl)pyrimidin-4-yl)piperazin-1-yl)(5-methylisoxazol-4-yl)methanone]",100 to 1000
13,"NC(=O)C1CN(c2ccnc(-c3cnc4ccc(C(F)(F)F)cn34)n2)C1 [I-228, 1-(2-(6-(trifluoromethyl)imidazo[1,2-a]pyridin-3-yl)pyrimidin-4-yl)azetidine-3-carboxamide]",100 to 1000
14,"C[C@@H]1CN(c2nccc(-c3cnc4ccc(C(F)(F)F)cn34)n2)C[C@H](c2nn[nH]n2)O1 [I-190, (2R,6R)-2-methyl-6-(2H-tetrazol-5-yl)-4-(4-(6-(trifluoromethyl)imidazo[1,2-a]pyridin-3-yl)pyrimidin-2-yl)morpholine]",100 to 1000
15,"CS(=O)(=O)NCC1C[C@@H]2CC[C@H]1N(c1ccnc(-c3cnc4ccc(C(F)F)cn34)n1)C2 (stereo partly drawn) [I-394, N-(((1R,4S)-2-(2-(6-(difluoromethyl)imidazo[1,2-a]pyridin-3-yl)pyrimidin-4-yl)-2-azabicyclo[2.2.2]octan-6-yl)methyl)methanesulfonamide]",100 to 1000
16,"Cc1nonc1C(=O)N1CCN(c2ccnc(-c3cnc4ccc(C(F)(F)F)cn34)n2)CC1c1cn[nH]c1 (centres unmarked) [I-518, (2-(1H-pyrazol-4-yl)-4-(2-(6-(trifluoromethyl)imidazo[1,2-a]pyridin-3-yl)pyrimidin-4-yl)piperazin-1-yl)(4-methyl-1,2,5-oxadiazol-3-yl)methanone]",10 to 100
17,"CC1(C)CN(c2ccnc(-c3cnc4ccc(C(F)(F)F)cn34)n2)CCN1CC(F)(F)F [I-333, 3-(4-(3,3-dimethyl-4-(2,2,2-trifluoroethyl)piperazin-1-yl)pyrimidin-2-yl)-6-(trifluoromethyl)imidazo[1,2-a]pyridine]",100 to 1000
18,"C[C@H]1[C@@H](c2cn[nH]c2)NCCN1c1ccnc(-c2cnc3ccc(C(F)(F)F)cn23)n1 [I-534, 3-(4-((2 S,3R)-2-methyl-3-(1H-pyrazol-4-yl)piperazin-1-yl)pyrimidin-2-yl)-6-(trifluoromethyl)imidazo[1,2-a]pyridine]",100 to 1000
19,"CC1C(C(N)=O)NCCN1c1ccnc(-c2cnc3cc(F)c(C4CC4)cn23)n1 (centres unmarked) [I-427, 4-(2-(6-cyclopropyl-7-fluoroimidazo[1,2-a]pyridin-3-yl)pyrimidin-4-yl)-3-methylpiperazine-2-carboxamide]",10 to 100
20,"NC(=O)[C@@H]1CCCN(c2ccnc(-c3cnc4ccc(Cl)cn34)n2)C1 [I-164, (R)-1-(2-(6-chloroimidazo[1,2-a]pyridin-3-yl)pyrimidin-4-yl)piperidine-3-carboxamide]",10 to 100
21,"Cc1nnc(C)n1[C@H]1C[C@H](C)CN(c2nccc(-c3cnc4ccc(C(F)(F)F)cn34)n2)C1 [I-465, 3-(2-((3S,5S)-3-(3,5-dimethyl-4H-1,2,4-triazol-4-yl)-5-methylpiperidin-1-yl)pyrimidin-4-yl)-6-(trifluoromethyl)imidazo[1,2-a]pyridine]",100 to 1000
22,"CC1CN(c2ccnc(-c3cnc4ccc(C(F)(F)F)cn34)n2)CC(C#N)O1 (centres unmarked) [I-331, 6-methyl-4-(2-(6-(trifluoromethyl)imidazo[1,2-a]pyridin-3-yl)pyrimidin-4-yl)morpholine-2-carbonitrile]",100 to 1000
23,"Cc1nn(C)cc1C(=O)N1CCN(c2ccnc(-c3cnc4ccc(C(F)(F)F)cn34)n2)C[C@H]1C [I-479, (R)-(1,3-dimethyl-1H-pyrazol-4-yl)(2-methyl-4-(2-(6-(trifluoromethyl)imidazo[1,2-a]pyridin-3-yl)pyrimidin-4-yl)piperazin-1-yl)methanone]",100 to 1000
24,"N[C@H]1C[C@H](O)CN(c2ccnc(-c3cnc4ccc(C(F)(F)F)cn34)n2)C1 [I-239, (3 S,5S)-5-amino-1-(2-(6-(trifluoromethyl)imidazo[1,2-a]pyridin-3-yl)pyrimidin-4-yl)piperidin-3-ol]",100 to 1000
25,"NC1CN(c2ccnc(-c3cnc4ccc(Cl)cn34)n2)CC[C@H]1O (stereo in doubt) [I-255, (3R,4R)-3-amino-1-(2-(6-chloroimidazo[1,2-a]pyridin-3-yl)pyrimidin-4-yl)piperidin-4-ol]",100 to 1000
26,"Cc1[nH]ncc1[C@H]1CN(c2ccnc(-c3cnc4cc(F)c(Cl)cn34)n2)C[C@H](C)O1 [I-539, (2S,6S)-4-(2-(6-chloro-7-fluoroimidazo[1,2-a]pyridin-3-yl)pyrimidin-4-yl)-2-methyl-6-(5-methyl-1H-pyrazol-4-yl)morpholine]",10 to 100
27,"O=C(O)C1CC(F)CN(c2ccnc(-c3cnc4ccc(C(F)(F)F)cn34)n2)C1 (centres unmarked) [I-206, 5-fluoro-1-[2-(6-trifluoromethyl-imidazo[1,2-a]pyridin-3-yl)-pyrimidin-4-yl]-piperidine-3-carboxylic acid]",10 to 100
28,"O=C1CCC(C(=O)N2CCN(c3ccnc(-c4cnc5ccc(C(F)(F)F)cn45)n3)CC2c2cn[nH]c2)N1 (centres unmarked) [I-469, 5-(2-(1H-pyrazol-4-yl)-4-(2-(6-(trifluoromethyl)imidazo[1,2-a]pyridin-3-yl)pyrimidin-4-yl)piperazine-1-carbonyl)pyrrolidin-2-one]",10 to 100

# Same assay, conditions: Ki(app); 280 μM ATP, 200 μM (RS)7 peptide, 4 nM GCN2, 25° C.
row,SMILES,Ki [nM]
1,"CC1C(C(N)=O)NCCN1c1ccnc(-c2cnc3ccc(C(F)(F)F)cn23)n1 (centres unmarked) [I-380, 3-methyl-4-{2-[6-(trifluoromethyl)imidazo[1,2-a]pyridin-3-yl]pyrimidin-4-yl}piperazine-2-carboxamide]",< 10
2,"CS(C)(=O)=NC1CCCN(c2ccnc(-c3cnc4ccc(Cl)cn34)n2)C1 (centres unmarked) [I-30, ((1-(2-(6-Chloroimidazo[1,2-a]pyridin-3-yl)pyrimidin-4-yl)piperidin-3-yl)imino)dimethyl-λ^6-sulfanone]",100 to 1000
3,"Cc1noc([C@@H]2CN(c3ccnc(-c4cnc5ccc(C(F)(F)F)cn45)n3)C[C@H](C)O2)n1 (stereo in doubt) [I-89, 2-methyl-6-(3-methyl-1,2,4-oxadiazol-5-yl)-4-{2-[6-(trifluoromethyl)imidazo[1,2-a]pyridin-3-yl]pyrimidin-4-yl}morpholine]",10 to 100
4,"CS(=O)(=O)N1CCC2(CCCN2c2ccnc(-c3cnc4ccc(C(F)(F)F)cn34)n2)CC1 [I-7, 8-Methylsulfonyl-1-[2-[6-(trifluoromethyl)imidazo[1,2-a]pyridin-3-yl]pyrimidin-4-yl]-1,8-diazaspiro[4.5]decane]",100 to 1000
